In patent US10626094B2 (La Jolla Institute of Allergy & Immunology, priority 2014, dated 2020):

Target: LMPTP-A (Low Molecular Weight Protein Tyrosine Phosphatase-A) enzyme (Homo sapiens (Human), UniProt P24666)
Test: LMPTP primary screening / LMPTP (OMFP) enzyme inhibition assay, fluorescence intensity
Format: biochemical
Conditions: LMPTP-A, OMFP substrate, method of Example 2; read-out: IC50
How it was run: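 Single-concentration screen, test compounds 20 μM final, […]. Enzyme (0.625 nM) and OMFP (400 μM) react 50 min at room temp, dark, in Bis-Tris buffer pH 6.0 containing DTT 1 mM and Triton X-100 0.01%. Read-out: fluorescence intensity.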

LMPTP-A (Low Molecular Weight Protein Tyrosine Phosphatase-A) enzyme, sequence (P24666 whole entry): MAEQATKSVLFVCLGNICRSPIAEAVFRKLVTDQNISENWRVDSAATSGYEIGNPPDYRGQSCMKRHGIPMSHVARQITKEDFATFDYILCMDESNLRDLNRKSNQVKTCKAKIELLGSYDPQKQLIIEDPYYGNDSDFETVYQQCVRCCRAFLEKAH

| Compound | IC50 [µM] |
| --- | --- |
| c1ccc2c(NCCCC3CCCNC3)cc(-c3ccoc3)nc2c1 (stereo not shown) [Compound I177, (2-(3-furyl)(4-quinolyl))(3-piperidylpropyl)amine] | 0.801 to 5 |
| CCNC(=O)c1ccc(-c2cc(NCCCN3CCCCC3)c3ccccc3n2)cc1 [Compound I62] | 0.801 to 5 |
| CN1CCCC1CCNc1cc(-c2cccc(Cl)c2)nc2ccccc12 (stereo not shown) [Compound I15, [2-(3-chlorophenyl)(4-quinolyl)][2-(1-methylpyrrolidin-2-yl)ethyl]amine] | 0.801 to 5 |
| FC(F)(F)Oc1cccc(-c2cc(NCCCN3CCCCC3)c3ccccc3n2)c1 [Compound G3, (3-Piperidin-1-yl-propyl)-[2-(3-trifluoromethoxy-phenyl)-quinolin-4-yl]-amine] | 0.801 to 5 |
| CCN(CC)S(=O)(=O)c1ccc(C)c(-c2cc(NCCCN3CCCCC3)c3ccccc3n2)c1 [Compound I242] | > 5 |
| c1c[nH]c(-c2cc(NCCCN3CCCCC3)c3ccccc3n2)c1 [Compound G22, (3-Piperidin-1-yl-propyl)-[2-(1H-pyrrol-2-yl)-quinolin-4-yl]-amine] | 0.801 to 5 |
| COc1ccc(-c2cc(Nc3cccc(CC4CCN(S(C)(=O)=O)CC4)c3)c3ccccc3n2)cc1 [Compound I28, 4-[(3-{[2-(4-methoxyphenyl)(4-quinolyl)]amino}phenyl)methyl]-1-(methylsulfonyl)piperidine] | 0.801 to 5 |
| FC(F)(F)c1ccc(-c2cc(NCCCN3CCCCC3)c3ccccc3n2)c(C(F)(F)F)c1 [Compound I149] | 0.2 to 0.8 |
| COc1ccc(-c2cc(Nc3ccc(OC)nc3)c3ccccc3n2)cc1 [Compound G48, (6-methoxy(3-pyridyl))[2-(4-methoxyphenyl)(4-quinolyl)]amine] | 0.2 to 0.8 |
| CN(C)Cc1ccc(Nc2cc(-c3ccc(C(F)(F)F)cc3C(F)(F)F)nc3ccccc23)cc1 [Compound I54, {[4-({2-[2,4-bis(trifluoromethyl)phenyl](4-quinolyl)}amino)phenyl]methyl}dimethylamine] | > 5 |
| CCN(CC)C(=O)c1ccc(-c2cc(NCCCC3CCCNC3)c3ccccc3n2)cc1 (stereo not shown) [Compound I71, N,N-diethyl(4-{4-[(3-piperidylpropyl)amino](2-quinolyl)}phenyl)carboxamide] | 0.2 to 0.8 |

Second part, the compound after the results:

| IC50 [µM] | Compound |
| --- | --- |
| > 5 | NC(=O)c1ccc(-c2cc(NCc3ccc(CN4CCOCC4)cc3)c3ccccc3n2)cc1 [Compound I212, 4-[4-({[4-(morpholin-4-ylmethyl)phenyl]methyl}amino)-2-quinolyl]benzamide] |
| 0.801 to 5 | COc1ccc(-c2cc(Nc3ccc(F)cc3)c3ccccc3n2)cc1 [Compound G39, (4-fluorophenyl)[2-(4-methoxyphenyl)(4-quinolyl)]amine] |
| 0.801 to 5 | COc1ccc(-c2cc(Nc3cccc(CN4CCCCC4)c3)c3ccccc3n2)cc1 [Compound G54, [2-(4-methoxyphenyl)(4-quinolyl)][3-(piperidylmethyl)phenyl]amine] |
| 0.801 to 5 | Clc1ncccc1-c1cc(NCCCN2CCCCC2)c2ccccc2n1 [Compound I99] |
| > 5 | NC(=O)c1ccc(-c2cc(NCc3ccc(CN4CCCCC4)cc3)c3ccccc3n2)cc1 [Compound I213, 4-[4-({[4-(piperidylmethyl)phenyl]methyl}amino)-2-quinolyl]benzamide] |
| 0.801 to 5 | CC(=O)Nc1ccc(-c2cc(NCCCN3CCCCC3)c3ccccc3n2)cc1C(F)(F)F [Compound I77] |
| 0.801 to 5 | O=C(O)c1cccc(-c2cc(NCCCN3CCCCC3)c3ccccc3n2)c1 [Compound I128] |
| 0.2 to 0.8 | CCOC(=O)CNC(=O)c1ccc(-c2cc(NCCCN3CCCCC3)c3ccccc3n2)cc1 [Compound I65] |
| 0.801 to 5 | COc1cccc(F)c1-c1cc(NCCCN2CCCCC2)c2ccccc2n1 [Compound I164] |
| 0.801 to 5 | Clc1cccc(-c2cc(NCCCc3cccnc3)c3ccccc3n2)c1 [Compound I202] |
| 0.2 to 0.8 | O=C(NCc1ccccc1)c1ccc(-c2cc(NCCCN3CCCCC3)c3ccccc3n2)cc1 [Compound I253] |
